The values below come from PubChem BioAssay AID256 (DTP/NCI, 2004).

SMILES strings stand for the structures. Values joined by “and” are separate entries in the source; they are usually repeats but may differ in a detail not shown here. Equal values may be shown once. Inconclusive results and toxic doses are left out.

This test deals with CD2F1 mice, L1210 leukemia ip, survival T/C. Put plainly: NCI In Vivo Anticancer Drug Screen. Data for tumor model L1210 Leukemia (intraperitoneal) in CD2F1 (CDF1) mice. The conditions noted are these: higher = longer survival. In a few lines:
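Transplantable tumor in mice; compound-treated vs vehicle-treated groups. Read-out = treated/control ratio of the measured endpoint.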

The mark [1] stands for this setting: endpoint: mean survival time, dose: 100.0 mg/kg/injection, schedule: Q04DX003 (ip), vehicle: saline.
Setting [2] is: endpoint: mean survival time, dose: 200.0 mg/kg/injection, schedule: Q04DX003 (ip), vehicle: saline.
The mark [3] stands for this setting: endpoint: mean survival time, dose: 100.0 mg/kg/injection, schedule: Q04DX002 (ip), vehicle: saline with Tween-80.
The mark [4] stands for this setting: endpoint: mean survival time, dose: 200.0 mg/kg/injection, schedule: Q04DX002 (ip), vehicle: saline with Tween-80.

Regarding `CS(=O)(=O)OCCCNCCCOS(C)(=O)=O`, the T/C runs as follows: (endpoint: mean survival time, dose: 6.3 mg/kg/injection, schedule: Q01DX009 (ip), vehicle: saline) 123 % of control; (endpoint: mean survival time, dose: 6.3 mg/kg/injection, schedule: Q04DX003 (ip), vehicle: saline) 119 % of control and 114 % of control; (endpoint: mean survival time, dose: 10.0 mg/kg/injection, schedule: Q03DX003 (ip), vehicle: saline) 121 % of control; (endpoint: mean survival time, dose: 12.5 mg/kg/injection, schedule: Q01DX001 (ip), vehicle: saline) 121 % of control and 120 % of control; (endpoint: mean survival time, dose: 12.5 mg/kg/injection, schedule: Q04DX003 (ip), vehicle: saline) 119 % of control; (endpoint: mean survival time, dose: 20.0 mg/kg/injection, schedule: Q01DX007 (ip), vehicle: saline) 162 % of control. Moreover, the T/C by setting is: (endpoint: mean survival time, dose: 20.0 mg/kg/injection, schedule: Q01DX009 (ip), vehicle: saline) 164 % of control and 170 % of control; (endpoint: mean survival time, dose: 20.0 mg/kg/injection, schedule: Q04DX003 (ip), vehicle: saline) 152 % of control; (endpoint: mean survival time, dose: 23.0 mg/kg/injection, schedule: Q01DX009 (ip), vehicle: saline) 160 % of control; (endpoint: mean survival time, dose: 25.0 mg/kg/injection, schedule: Q01DX001 (ip), vehicle: saline) 110 % of control; (endpoint: mean survival time, dose: 25.0 mg/kg/injection, schedule: Q01DX009 (ip), vehicle: saline) 162 % of control [middle of 4 runs]; (endpoint: mean survival time, dose: 25.0 mg/kg/injection, schedule: Q04DX003 (ip), vehicle: saline) 151 % of control and 155 % of control. For the same compound, the T/C runs as follows: (endpoint: mean survival time, dose: 39.0 mg/kg/injection, schedule: Q01DX009 (ip), vehicle: saline) 171 % of control; (endpoint: mean survival time, dose: 39.0 mg/kg/injection, schedule: Q04DX003 (ip), vehicle: saline) 152 % of control; (endpoint: mean survival time, dose: 40.0 mg/kg/injection, schedule: Q01DX007 (ip), vehicle: saline) 167 % of control; (endpoint: mean survival time, dose: 40.0 mg/kg/injection, schedule: Q01DX009 (ip), vehicle: saline) 171 % of control and 189 % of control and 206 % of control; (endpoint: mean survival time, dose: 40.0 mg/kg/injection, schedule: Q04DX003 (ip), vehicle: saline) 152 % of control; (endpoint: mean survival time, dose: 50.0 mg/kg/injection, schedule: Q01DX001 (ip), vehicle: saline) 150 % of control. The T/C reads like this: (endpoint: mean survival time, dose: 50.0 mg/kg/injection, schedule: Q01DX009 (ip), vehicle: saline) 219 % of control and 181 % of control and 239 % of control; (endpoint: mean survival time, dose: 50.0 mg/kg/injection, schedule: Q04DX003 (ip), vehicle: saline) 177 % of control [middle of 4 runs]; (endpoint: mean survival time, dose: 65.0 mg/kg/injection, schedule: Q01DX001 (oral), vehicle: saline) 106 % of control; (endpoint: mean survival time, dose: 65.0 mg/kg/injection, schedule: Q01DX009 (ip), vehicle: saline) 168 % of control; (endpoint: mean survival time, dose: 65.0 mg/kg/injection, schedule: Q01DX009 (oral), vehicle: saline) 90 % of control; (endpoint: mean survival time, dose: 65.0 mg/kg/injection, schedule: Q04DX003 (ip), vehicle: saline) 179 % of control. For the same compound, the T/C reads like this: (endpoint: mean survival time, dose: 100.0 mg/kg/injection, schedule: Q01DX001 (ip), vehicle: saline) 161 % of control and 172 % of control and 155 % of control; (endpoint: mean survival time, dose: 100.0 mg/kg/injection, schedule: Q01DX009 (ip), vehicle: saline) 95 % of control and 121 % of control; under setting [1], 261 % of control [middle of 5 runs]; (endpoint: mean survival time, dose: 108.0 mg/kg/injection, schedule: Q01DX001 (oral), vehicle: saline) 121 % of control; (endpoint: mean survival time, dose: 108.0 mg/kg/injection, schedule: Q01DX009 (oral), vehicle: saline) 86 % of control; (endpoint: mean survival time, dose: 108.0 mg/kg/injection, schedule: Q04DX003 (ip), vehicle: saline) 205 % of control. In addition, the T/C was 150 % of control (endpoint: mean survival time, dose: 108.0 mg/kg/injection, schedule: Q08DX002 (ip), vehicle: saline); 150 % of control (endpoint: mean survival time, dose: 180.0 mg/kg/injection, schedule: Q01DX001 (ip), vehicle: saline); 119 % of control (endpoint: mean survival time, dose: 180.0 mg/kg/injection, schedule: Q01DX001 (oral), vehicle: saline); 277 % of control and 288 % of control and 517 % of control (endpoint: mean survival time, dose: 200.0 mg/kg/injection, schedule: Q01DX001 (ip), vehicle: saline); 121 % of control and 123 % of control under setting [2].

Consider `c1ccc(Nc2ccc(N=Nc3nc4ccccc4s3)cc2)cc1`, for which the T/C was 93 % of control (endpoint: mean survival time, dose: 100.0 mg/kg/injection, schedule: Q01DX001 (ip), vehicle: saline with Tween-80); 97 % of control (endpoint: mean survival time, dose: 200.0 mg/kg/injection, schedule: Q01DX001 (ip), vehicle: saline with Tween-80); 97 % of control (endpoint: mean survival time, dose: 400.0 mg/kg/injection, schedule: Q01DX001 (ip), vehicle: saline with Tween-80).

Regarding `O=C1OC(=O)c2ccc([N+](=O)[O-])c3c([N+](=O)[O-])ccc1c23`, the T/C is, setting by setting: (endpoint: mean survival time, dose: 100.0 mg/kg/injection, schedule: Q04DX003 (ip), vehicle: saline with Tween-80) 92 % of control; (endpoint: mean survival time, dose: 200.0 mg/kg/injection, schedule: Q04DX003 (ip), vehicle: saline with Tween-80) 95 % of control; (endpoint: mean survival time, dose: 400.0 mg/kg/injection, schedule: Q04DX003 (ip), vehicle: saline with Tween-80) 90 % of control.

As for `C[N+](C)(C)CCP(=O)([O-])O`, the T/C is 98 % of control under setting [1]; 101 % of control under setting [2]; 101 % of control (endpoint: mean survival time, dose: 400.0 mg/kg/injection, schedule: Q04DX003 (ip), vehicle: saline).

Regarding `O=C(Nc1cc(S(=O)(=O)O)cc2cc(S(=O)(=O)O)c(N=Nc3ccc([As](=O)(O)O)cc3)c(O)c12)c1ccc([N+](=O)[O-])cc1`, the T/C (endpoint: mean survival time, dose: 12.5 mg/kg/injection, schedule: Q04DX002 (ip), vehicle: saline) was 101 % of control; the T/C (endpoint: mean survival time, dose: 25.0 mg/kg/injection, schedule: Q04DX002 (ip), vehicle: saline) is 94 % of control; the T/C (endpoint: mean survival time, dose: 50.0 mg/kg/injection, schedule: Q04DX002 (ip), vehicle: saline) was 94 % of control.

As for `NCCCN1CCN(c2ccccc2)CC1`, the T/C was 92 % of control under setting [3] and 92 % of control under setting [4].

Regarding `CCOC(=O)C(C(C)=O)C1=C(Cl)C(=O)c2ccccc2C1=O` (stereo not drawn), the T/C by setting is: (endpoint: mean survival time, dose: 75.0 mg/kg/injection, schedule: Q01DX001 (ip), vehicle: other) 95 % of control; (endpoint: mean survival time, dose: 150.0 mg/kg/injection, schedule: Q01DX001 (ip), vehicle: other) 94 % of control; (endpoint: mean survival time, dose: 300.0 mg/kg/injection, schedule: Q01DX001 (ip), vehicle: other) 92 % of control.

For `O=C(c1ccccc1)c1cc(Cl)ccc1N1C(=O)C=CC1=O`, the T/C by setting is: (endpoint: mean survival time, dose: 6.25 mg/kg/injection, schedule: Q01DX009 (ip), vehicle: saline with Tween-80) 94 % of control; (endpoint: mean survival time, dose: 12.5 mg/kg/injection, schedule: Q01DX009 (ip), vehicle: saline with Tween-80) 95 % of control; (endpoint: mean survival time, dose: 25.0 mg/kg/injection, schedule: Q01DX009 (ip), vehicle: saline with Tween-80) 100 % of control.

Regarding `COc1cccc2c1C(=N)c1c(O)c3c(c(O)c1C2=O)C[C@@](O)(C(C)=O)C[C@@H]3OC1CC(N)C(O)C(C)O1` (stereo partly drawn), the T/C reads like this: (endpoint: mean survival time, dose: 0.5 mg/kg/injection, schedule: Q01DX009 (ip), vehicle: saline) 121 % of control and 108 % of control; (endpoint: mean survival time, dose: 1.0 mg/kg/injection, schedule: Q01DX009 (ip), vehicle: saline) 124 % of control; (endpoint: mean survival time, dose: 2.0 mg/kg/injection, schedule: Q01DX009 (ip), vehicle: saline) 113 % of control and 122 % of control; (endpoint: mean survival time, dose: 4.0 mg/kg/injection, schedule: Q01DX009 (ip), vehicle: saline) 114 % of control and 119 % of control; (endpoint: mean survival time, dose: 8.0 mg/kg/injection, schedule: Q01DX009 (ip), vehicle: saline) 101 % of control.

Turning to `O=[N+]([O-])c1cccc2c1ccc1cccnc12`, the T/C is 90 % of control under setting [3]; 95 % of control under setting [4]; 98 % of control (endpoint: mean survival time, dose: 400.0 mg/kg/injection, schedule: Q04DX002 (ip), vehicle: saline with Tween-80).

As to `O=c1[nH]cc(N=Cc2ccccc2F)c(=O)[nH]1.[Cl][Pt][Cl]`, the T/C (endpoint: mean survival time, dose: 3.13 mg/kg/injection, schedule: Q04DX003 (ip), vehicle: water) was 97 % of control; the T/C (endpoint: mean survival time, dose: 6.25 mg/kg/injection, schedule: Q04DX003 (ip), vehicle: water) is 96 % of control; the T/C (endpoint: mean survival time, dose: 12.5 mg/kg/injection, schedule: Q04DX003 (ip), vehicle: water) was 97 % of control; the T/C (endpoint: mean survival time, dose: 25.0 mg/kg/injection, schedule: Q04DX003 (ip), vehicle: water) was 100 % of control; the T/C (endpoint: mean survival time, dose: 50.0 mg/kg/injection, schedule: Q04DX003 (ip), vehicle: water) is 97 % of control; the T/C (endpoint: mean survival time, dose: 100.0 mg/kg/injection, schedule: Q04DX003 (ip), vehicle: water) was 91 % of control. Under “endpoint: mean survival time, dose: 200.0 mg/kg/injection, schedule: Q04DX003 (ip), vehicle: water”, the T/C is 100 % of control.

With `N#Cc1cnn2ccn(C3OC(COC(=O)c4ccccc4)C(OC(=O)c4ccccc4)C3OC(=O)c3ccccc3)c12` (stereo not drawn), the T/C is 90 % of control (endpoint: median survival time, dose: 50.0 mg/kg/injection, schedule: Q01DX005 (ip), vehicle: saline with Tween-80); 98 % of control (endpoint: median survival time, dose: 100.0 mg/kg/injection, schedule: Q01DX005 (ip), vehicle: saline with Tween-80); 94 % of control (endpoint: median survival time, dose: 200.0 mg/kg/injection, schedule: Q01DX005 (ip), vehicle: saline with Tween-80).
